The results in this text go back to ChEMBL document CHEMBL3045156, “Synthesis and fungicidal evaluation of 2-arylphenyl ether-3-(1H-1,2,4-triazol-1-yl)propan-2-ol derivatives” (2009).

Common to all, as to type: functional
Common to all, as to conditions: read-out: GI

The test system of assay [1] is Fusarium oxysporum. Briefly: Fungicidal activity against Fusarium oxysporum assessed as growth inhibition at 50 ug/mL.
Assay [2] deals with Mycosphaerella arachidis. Nature of the assay: Fungicidal activity against Mycosphaerella arachidis assessed as growth inhibition at 50 ug/mL.
Assay [3] deals with Alternaria solani. Nature of the assay: Fungicidal activity against Alternaria solani assessed as growth inhibition at 50 ug/mL.
For assay [4], the system named is Fusarium graminearum. Nature of the assay: Fungicidal activity against Fusarium graminearum assessed as growth inhibition at 50 ug/mL.
Assay [5] relates to Botryosphaeria berengeriana. Nature of the assay: Fungicidal activity against Botryosphaeria berengeriana assessed as growth inhibition at 50 ug/mL.
For assay [6], the system named is Botryosphaeria berengeriana. Briefly: Fungicidal activity against Botryosphaeria berengeriana assessed as growth inhibition at 1 ug/mL.
Assay [7] deals with Fusarium graminearum. Briefly: Fungicidal activity against Fusarium graminearum assessed as growth inhibition at 1 ug/mL.
Assay [8] has as its system Mycosphaerella arachidis. Nature of the assay: Fungicidal activity against Mycosphaerella arachidis assessed as growth inhibition at 1 ug/mL.
Assay [9] has as its system Fusarium oxysporum. Briefly: Fungicidal activity against Fusarium oxysporum assessed as growth inhibition at 1 ug/mL.
The subject of assay [10] is Alternaria solani. Nature of the assay: Fungicidal activity against Alternaria solani assessed as growth inhibition at 1 ug/mL.

In the case of `CCNCC(O)(Cn1cncn1)c1ccc(Oc2ccc(Cl)cc2)cc1Cl` (stereo not given), the inhibition of growth at 50 µg/mL in the assay on Fusarium oxysporum [1] was found to be 86.9%; with Mycosphaerella arachidis [2], 61.4%; with Alternaria solani [3] it was 63.8%; in the assay on Fusarium graminearum [4], 56.8%; in [5] it was 75.4%.

With `OC(CN1CCOCC1)(Cn1cncn1)c1ccc(Oc2ccc(Cl)cc2)cc1Cl` (stereo not given), the inhibition of growth at 50 µg/mL in the assay on Fusarium oxysporum [1] was 34.4%; in the assay with Mycosphaerella arachidis [2] it was 60%; in the assay on Alternaria solani [3], 55.2%; in the assay with Fusarium graminearum [4], 78.3%; in assay [5] it was 65.2%.

With `OCC(O)(Cn1cncn1)c1ccc(Oc2ccc(Cl)cc2)cc1Cl` (stereo not given), the inhibition of growth at 50 µg/mL with Fusarium oxysporum [1] was 77.1%; in the assay with Mycosphaerella arachidis [2], 100%; in the assay on Alternaria solani [3] it was 99%; in the assay with Fusarium graminearum [4] it was 99%; in assay [5], 99%.

Turning to `COCC(O)(Cn1cncn1)c1ccc(Oc2ccc(Cl)cc2)cc1Cl` (stereo not given), the inhibition of growth at 1 µg/mL in assay [6] amounted to 99.2%; in the assay with Fusarium graminearum [7], 63.2%; in the assay with Mycosphaerella arachidis [8] it was 78.6%; in the assay on Fusarium oxysporum [9] it was 89.9%; in the assay on Alternaria solani [10], 98.7%. Further, the inhibition of growth at 50 µg/mL was 100% with Fusarium oxysporum [1]; 99.1% in the assay on Mycosphaerella arachidis [2]; 100% with Alternaria solani [3]; 98.7% with Fusarium graminearum [4]; 100% in [5].

On to `CSCC(O)(Cn1cncn1)c1ccc(Oc2ccc(Cl)cc2)cc1Cl` (stereo not given), for which the inhibition of growth at 50 µg/mL with Fusarium oxysporum [1] amounted to 78.9%; in the assay on Mycosphaerella arachidis [2], 82.4%; in the assay with Alternaria solani [3] it was 83.7%; with Fusarium graminearum [4], 37.2%; in [5], 100%.

As for `OC(/C=C/c1ccccc1)(Cn1cncn1)c1ccc(Oc2ccc(Cl)cc2)cc1Cl` (stereo not given), the inhibition of growth at 50 µg/mL with Fusarium oxysporum [1] came to 68.7%; in the assay with Mycosphaerella arachidis [2], 100%; in the assay on Alternaria solani [3] it was 81.2%; in the assay with Fusarium graminearum [4] it was 64.3%; in assay [5] it was 67.9%.

On to `COCC(O)(Cn1cncn1)c1ccc(Oc2ccc(F)cc2)cc1Cl` (stereo not given), for which the inhibition of growth at 1 µg/mL in assay [6] was 89.5%; in the assay with Fusarium graminearum [7] it was 57.2%; with Mycosphaerella arachidis [8], 76.2%; in the assay on Fusarium oxysporum [9] it was 82.7%; in the assay with Alternaria solani [10] it was 96.9%. In addition, the inhibition of growth at 50 µg/mL (with Fusarium oxysporum [1]; in the assay on Mycosphaerella arachidis [2]; in the assay with Alternaria solani [3]; in the assay on Fusarium graminearum [4]; in [5]) was 100% in each case.

In the case of `OC(/C=C/c1c(Cl)cccc1Cl)(Cn1cncn1)c1ccc(Oc2ccc(Cl)cc2)cc1Cl` (stereo not given), the inhibition of growth at 50 µg/mL with Fusarium oxysporum [1] was found to be 51.8%; in the assay with Mycosphaerella arachidis [2], 92.4%; in the assay on Alternaria solani [3] it was 60.7%; in the assay on Fusarium graminearum [4], 50.3%; in [5], 79.3%.

On to `CNCC(O)(Cn1cncn1)c1ccc(Oc2ccc(Cl)cc2)cc1Cl` (stereo not given), for which the inhibition of growth at 1 µg/mL turned out to be 96% in assay [6]; 72.5% with Fusarium graminearum [7]; 57.2% in the assay with Mycosphaerella arachidis [8]; 0% in the assay on Fusarium oxysporum [9]; 50.3% in the assay with Alternaria solani [10]. Further, the inhibition of growth at 50 µg/mL amounted to 100% in the assay with Fusarium oxysporum [1]; 99% in the assay with Mycosphaerella arachidis [2]; 99% in the assay with Alternaria solani [3]; 98% with Fusarium graminearum [4]; 100% in [5].

With `CC(O)(Cn1cncn1)c1ccc(Oc2ccc(F)cc2)cc1Cl` (stereo not given), the inhibition of growth at 1 µg/mL was 48.7% in assay [6]; 0% in the assay on Fusarium graminearum [7]; 37.5% with Mycosphaerella arachidis [8]; 17.9% in the assay with Fusarium oxysporum [9]; 20% in the assay with Alternaria solani [10]. Moreover, the inhibition of growth at 50 µg/mL in the assay with Fusarium oxysporum [1] amounted to 99%; in the assay on Mycosphaerella arachidis [2], 99%; in the assay with Alternaria solani [3], 100%; in the assay on Fusarium graminearum [4], 98%; in [5] it was 100%.

`CC1COC(Cn2cncn2)(c2ccc(Oc3ccc(Cl)cc3)cc2Cl)O1` (stereo not given) [DIFENOCONAZOLE]: the inhibition of growth at 1 µg/mL turned out to be 69.7% in assay [6]; 73.9% in the assay with Fusarium graminearum [7]; 56.7% in the assay on Mycosphaerella arachidis [8]; 53.1% with Fusarium oxysporum [9]; 95% with Alternaria solani [10]. For the same molecule, the inhibition of growth at 50 µg/mL was found to be 99.9% in the assay with Fusarium oxysporum [1]; 100% in the assay with Mycosphaerella arachidis [2]; 99.2% in the assay with Alternaria solani [3]; 100% in the assay on Fusarium graminearum [4]; 100% in assay [5].

With `CC(C)(C)C(O)(CCc1ccc(Cl)cc1)Cn1cncn1` (stereo not given) [TEBUCONAZOLE], the inhibition of growth at 1 µg/mL was found to be 68.2% in assay [6]; 86.9% in the assay on Fusarium graminearum [7]; 91% with Mycosphaerella arachidis [8]; 65.6% in the assay on Fusarium oxysporum [9]; 65.5% in the assay with Alternaria solani [10]. In addition, the inhibition of growth at 50 µg/mL (in the assay with Fusarium oxysporum [1]; with Mycosphaerella arachidis [2]; with Alternaria solani [3]; with Fusarium graminearum [4]; in assay [5]) was 100% throughout.

`CN(C)CC(O)(Cn1cncn1)c1ccc(Oc2ccc(Cl)cc2)cc1Cl` (stereo not given): the inhibition of growth at 1 µg/mL in [6] turned out to be 27.7%; in the assay with Fusarium graminearum [7] it was 4.2%; in the assay with Mycosphaerella arachidis [8], 0%; with Fusarium oxysporum [9], 0%; in the assay with Alternaria solani [10], 18.6%. Besides, the inhibition of growth at 50 µg/mL with Fusarium oxysporum [1] came to 100%; in the assay on Mycosphaerella arachidis [2], 97.2%; in the assay with Alternaria solani [3], 99.1%; in the assay with Fusarium graminearum [4], 96.9%; in [5] it was 100%.

Turning to `Cc1ccc(/C=C/C(O)(Cn2cncn2)c2ccc(Oc3ccc(Cl)cc3)cc2Cl)cc1` (stereo not given), the inhibition of growth at 50 µg/mL was 60.2% in the assay with Fusarium oxysporum [1]; 95% in the assay on Mycosphaerella arachidis [2]; 63.2% with Alternaria solani [3]; 51.8% in the assay on Fusarium graminearum [4]; 59.3% in assay [5].

For `OC(Cn1cncn1)(Cn1nnc2ccccc21)c1ccc(Oc2ccc(Cl)cc2)cc1Cl` (stereo not given), the inhibition of growth at 50 µg/mL in the assay on Fusarium oxysporum [1] is 48.7%; in the assay with Mycosphaerella arachidis [2] it was 62.7%; with Alternaria solani [3] it was 53.3%; in the assay on Fusarium graminearum [4], 45.4%; in [5], 55.6%.

Turning to `CC(O)(Cn1cncn1)c1ccc(Oc2ccc(Cl)cc2)cc1Cl` (stereo not given), the inhibition of growth at 50 µg/mL was found to be 85.3% with Fusarium oxysporum [1]; 100% in the assay on Mycosphaerella arachidis [2]; 78.2% in the assay with Alternaria solani [3]; 100% in the assay with Fusarium graminearum [4]; 100% in assay [5].

In the case of `OC(/C=C/c1ccc(Cl)cc1)(Cn1cncn1)c1ccc(Oc2ccc(Cl)cc2)cc1Cl` (stereo not given), the inhibition of growth at 50 µg/mL in the assay on Fusarium oxysporum [1] is 57.1%; with Mycosphaerella arachidis [2], 95%; in the assay with Alternaria solani [3], 76.8%; in the assay on Fusarium graminearum [4] it was 77.2%; in assay [5], 64.1%.

For `OC(CNC1CCCCC1)(Cn1cncn1)c1ccc(Oc2ccc(Cl)cc2)cc1Cl` (stereo not given), the inhibition of growth at 50 µg/mL in the assay with Fusarium oxysporum [1] amounted to 78.9%; in the assay on Mycosphaerella arachidis [2], 75.2%; with Alternaria solani [3] it was 87.3%; with Fusarium graminearum [4], 47.5%; in assay [5], 100%.

`OC(/C=C/c1ccc(Cl)cc1Cl)(Cn1cncn1)c1ccc(Oc2ccc(Cl)cc2)cc1Cl` (stereo not given): the inhibition of growth at 50 µg/mL worked out at 50.9% in the assay with Fusarium oxysporum [1]; 97.8% with Mycosphaerella arachidis [2]; 54.4% in the assay on Alternaria solani [3]; 37.2% in the assay on Fusarium graminearum [4]; 58.7% in [5].

For `OC(Cn1ccnc1)(Cn1cncn1)c1ccc(Oc2ccc(F)cc2)cc1Cl` (stereo not given), the inhibition of growth at 50 µg/mL turned out to be 57.1% in the assay with Fusarium oxysporum [1]; 100% with Mycosphaerella arachidis [2]; 73.2% in the assay on Alternaria solani [3]; 84.3% in the assay with Fusarium graminearum [4]; 87.9% in [5].

For the molecule `OC(/C=C/c1ccccc1F)(Cn1cncn1)c1ccc(Oc2ccc(Cl)cc2)cc1Cl` (stereo not given), the inhibition of growth at 50 µg/mL stood at 65.9% in the assay with Fusarium oxysporum [1]; 99.3% in the assay on Mycosphaerella arachidis [2]; 55% in the assay on Alternaria solani [3]; 61.4% in the assay with Fusarium graminearum [4]; 52.1% in [5].

Take `COc1ccc(/C=C/C(O)(Cn2cncn2)c2ccc(Oc3ccc(Cl)cc3)cc2Cl)cc1` (stereo not given): the inhibition of growth at 50 µg/mL in the assay with Fusarium oxysporum [1] is 55.4%; in the assay with Mycosphaerella arachidis [2] it was 91.3%; in the assay on Alternaria solani [3], 55%; in the assay on Fusarium graminearum [4], 61.4%; in assay [5], 64.5%.

Turning to `OC(Cn1ccnc1)(Cn1cncn1)c1ccc(Oc2ccc(Cl)cc2)cc1Cl` (stereo not given), the inhibition of growth at 50 µg/mL in the assay with Fusarium oxysporum [1] was determined as 95%; with Mycosphaerella arachidis [2] it was 100%; with Alternaria solani [3], 99%; in the assay with Fusarium graminearum [4] it was 71.4%; in [5] it was 99%.

As to `OC(/C=C/c1ccc(Cl)c(Cl)c1)(Cn1cncn1)c1ccc(Oc2ccc(Cl)cc2)cc1Cl` (stereo not given), the inhibition of growth at 50 µg/mL turned out to be 57.1% in the assay with Fusarium oxysporum [1]; 100% with Mycosphaerella arachidis [2]; 66.7% with Alternaria solani [3]; 53.6% with Fusarium graminearum [4]; 64.6% in assay [5].

`OCCNCC(O)(Cn1cncn1)c1ccc(Oc2ccc(Cl)cc2)cc1Cl` (stereo not given): the inhibition of growth at 50 µg/mL with Fusarium oxysporum [1] came to 100%; in the assay on Mycosphaerella arachidis [2], 72.2%; in the assay on Alternaria solani [3] it was 98.5%; in the assay on Fusarium graminearum [4], 37.3%; in [5], 97.7%.
